Test results from patent US4582839A, “2,4-thiazolidinediones” (Takeda Chemical Industries, Ltd., priority 1985, dated 1986).
Read-outs that look alike come from different tables or passages of the source.

Assays:
[1] = Acute oral toxicity (LD50) in rat; conditions: in vivo, administered orally
Method: With reference to the method of administration, they are normally usable orally for example in the form of tablets, capsules, powders, granules, etc., but can also be administered parenterally in the form of injectable solutions, suppositories, pellets, etc., as the case may be. In the case of their being employed as a therapeutic agent for diabetes, they can be normally administered orally in daily doses of 0.05 mg to 10 mg/kg or parenterally in daily doses of 0.01 mg to 10 mg/kg, per adult human, and in the case of their being utilized as a therapeutic agent for hyperlipemia, they can be normally given orally in daily doses of 0.05 mg to 10 mg/kg or parenterally in daily doses of 0.01 mg to 10 mg/kg, per adult human, whereby it is desirable to administer such quantities once daily or intermittently twice to four times weekly.

KKAy mice = assay: Blood sugar- and lipid-lowering activity in mice (test compound 0.005% in diet, 4 days); assay type: in vivo; conditions: Mus musculus, feed or water, 96 h, 0.005% in powder diet, male KKAy mice
Method: Blood sugar- and lipid-lowering activity in mice.
0.005% of a test compound was mixed with a powder diet (CE-2, produced by CLEA JAPAN), and KKAy mice (male, 8 to 10 weeks of age, 5 mice/group) were placed on the diet for 4 days, and allowed free access to water throughout the experiment. Blood samples were taken from the orbital veins and assayed for blood sugar by the glucose oxidase method and for plasma triglyceride by the enzyme method in which the produced glycerol was determined by means of Cleantech TG-S Kit (Yatron), respectively. The respective values are expressed in terms of rate of lowering (%) from the values of control group not receiving the test compound.

[2] = enzyme method (Cleantech TG-S Kit), read-out: Hypolipemic activity (rate of lowering of plasma triglyceride from control group)
[3] = glucose oxidase method, read-out: Hypoglycemic activity (rate of lowering of blood sugar from control group)

Row | Compound | LD50 [1] [mg/kg] | inhibition in vivo at 0.005 %, 0.005 % in diet (KKAy mice; [2]) [%] | inhibition in vivo at 0.005 %, 0.005 % in diet (KKAy mice; [3]) [%]
1 | CCc1ccc(C(CO)COc2ccc(CC3SC(=O)NC3=O)cc2)nc1 (stereo not shown) [5-{4-[2-(5-ethyl-2-pyridyl)-3-hydroxypropoxy]benzyl}-2,4-thiazolidinedione] | ≥ 5000 | – | –
2 | Cc1cccc(C(O)COc2ccc(CC3SC(=O)NC3=O)cc2)n1 (stereo not shown) [Example 1, 5-{4-[2-hydroxy-2-(6-methyl-2-pyridyl)ethoxy]benzyl}-2,4-thiazolidinedione] | ≥ 5000 | 47 | 45
3 | Cc1cccnc1C(CO)COc1ccc(CC2SC(=O)NC2=O)cc1 (stereo not shown) [Example 2, 5-{4-[3-hydroxy-2-(3-methyl-2-pyridyl)propoxy]-benzyl}-2,4-thiazolidinedione] | ≥ 5000 | 11 | 22
4 | CCc1ccc(C(O)COc2ccc(CC3SC(=O)NC3=O)cc2)nc1 (stereo not shown) [Example 3, 5-{4-[2-(5-ethyl-2-pyridyl)-2-hydroxyethoxy]benzyl}-2,4-thiazolidinedione] | ≥ 5000 | 35 | 32
5 | CCc1ccc(C(CO)COc2ccc(CC3SC(=O)NC3=O)cc2)nc1 (stereo not shown) [Example 4, 5-{4-[2-(5-ethyl-2-pyridyl)-3-hydroxypropoxy]benzyl}-2,4-thiazolidinedione] | – | 38 | 45
6 | CC(=O)OC(COc1ccc(CC2SC(=O)NC2=O)cc1)c1cccc(C)n1 (stereo not shown) [Example 5, 5-{4-[2-acetoxy-2-(6-methyl-2-pyridyl)ethoxy]benzyl}-2,4-thiazolidinedione] | ≥ 5000 | – | –
7 | CCc1ccc(C(COC(C)=O)COc2ccc(CC3SC(=O)NC3=O)cc2)nc1 (stereo not shown) [Example 6, 5-{4-[3-acetoxy-2-(5-ethyl-2-pyridyl)propoxy]benzyl}-2,4-thiazolidinedione] | ≥ 5000 | – | –
8 | Cc1cccnc1C(O)COc1ccc(CC2SC(=O)NC2=O)cc1 (stereo not shown) [Example 7, 5-{4-[2-Hydroxy-2-(3-methyl-2-pyridyl)ethoxy]benzyl}-2,4-thiazolidinedione] | – | 58 | 53
9 | O=C1NC(=O)C(Cc2ccc(OCC(O)c3ccccn3)cc2)S1 (stereo not shown) [Example 8, 5-{4-[2-Hydroxy-2-(2-pyridyl)ethoxy]benzyl}-2,4-thiazolidinedione] | – | 53 | 47
10 | Cc1ccc(C(O)COc2ccc(CC3SC(=O)NC3=O)cc2)nc1 (stereo not shown) [Example 9, 5-{4-[2-Hydroxy-2-(5-methyl-2-pyridyl)ethoxy]benzyl}-2,4-thiazolidinedione] | – | 19 | 35
11 | Cc1cc(C)nc(C(O)COc2ccc(CC3SC(=O)NC3=O)cc2)c1 (stereo not shown) [Example 10, 5-{4-[2-(4,6-dimethyl-2-pyridyl)-2-hydroxyethoxy]benzyl}-2,4-thiazolidinedione] | – | 47 | 40
